Test results published in patent US9108944B2, “Androgen receptor modulators and uses thereof” (ARAGON PHARMACEUTICALS, INC., priority 2010, dated 2015).

Target: T1, AR-VP16 (Homo sapiens, UniProt P10275)
T1 sequence (P10275 560-920 limits assumed): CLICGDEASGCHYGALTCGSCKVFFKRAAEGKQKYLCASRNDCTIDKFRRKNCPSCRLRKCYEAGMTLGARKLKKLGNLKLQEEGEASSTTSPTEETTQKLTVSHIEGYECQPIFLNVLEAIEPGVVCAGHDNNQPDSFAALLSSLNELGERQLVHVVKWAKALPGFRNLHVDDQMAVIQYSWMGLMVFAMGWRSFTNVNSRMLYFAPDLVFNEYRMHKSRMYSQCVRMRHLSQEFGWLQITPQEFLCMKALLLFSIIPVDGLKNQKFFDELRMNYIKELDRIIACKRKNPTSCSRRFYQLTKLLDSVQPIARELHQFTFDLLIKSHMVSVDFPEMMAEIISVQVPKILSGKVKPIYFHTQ
Experiment: AR-VP16 DNA Binding Assay, antagonist mode (HepG2 cells, 0.1 nM R1881)
Assay type: cell-based
Procedure: Cells were transiently transfected using Lipofectin (Life Technologies) according to the manufacturer's protocol. […] Transfected cells were incubated overnight then treated with ligand. […] For antagonist assays, the compounds were serially diluted and 50 μL of compound with RPMI supplemented with charcoal stripped serum plus methyltrienolone (R1881) were added to the cells. The final R1881 concentration used in the antagonist assays was 0.1 nM. Following 48 hour incubation the medium was removed and the cells were lysed in 40 μL of lysis buffer (25 mM Tris Phosphate, 2 mM CDTA, 10% Glycerol, 0.5% Triton X-100, 2 mM DTT).

| Compound | IC50 |
| --- | --- |
| N#Cc1ncc(N2C(=O)C3(CCC3)N(c3ccc(C(=O)NCCCN4CCOCC4)c(F)c3)C2=S)cc1C(F)(F)F [Compound 268, 4-(7-(6-Cyano-5-(trifluoromethyl)pyridin-3-yl)-8-oxo-6-thioxo-5,7-diazaspiro[3.4]octan-5-yl)-2-fluoro-N-(3-morpholinopropyl)benzamide] | < 1000 nM |
| COc1ccc(N2C(=S)N(c3cnc(C#N)c(C(F)(F)F)c3)C(=O)C23CCC3)cc1 [Compound 204, 5-(5-(4-Methoxyphenyl)-8-oxo-6-thioxo-5,7-diazaspiro[3.4]octan-7-yl)-3-(trifluoromethyl)picolinonitrile] | < 1000 nM |
| N#Cc1ncc(N2C(=O)C3(CCC3)N(c3ccc(OCCC4CCCCC4)c(F)c3)C2=S)cc1C(F)(F)F [Compound 179, 5-(5-(4-(2-Cyclohexylethoxy)-3-fluorophenyl)-8-oxo-6-thioxo-5,7-diazaspiro[3.4]octan-7-yl)-3-(trifluoromethyl)picolinonitrile] | < 1000 nM |
| Cc1cc(N2C(=O)C3(CCC3)N(c3ccc(C(=O)Nc4nccs4)c(F)c3)C2=S)cnc1C#N [Compound 301, 4-(7-(6-Cyano-5-methylpyridin-3-yl)-8-oxo-6-thioxo-5,7-diazaspiro[3.4]octan-5-yl)-2-fluoro-N-(thiazol-2-yl)benzamide] | < 1000 nM |
| N#Cc1ncc(N2C(=O)C3(CCC3)N(c3cccc4ccccc34)C2=S)cc1C(F)(F)F [Compound 110, 5-(5-(Naphthalen-1-yl)-8-oxo-6-thioxo-5,7-diazaspiro[3.4]octan-7-yl)-3-(trifluoromethyl)picolinonitrile] | < 1000 nM |
| CC(C)CCNC(=O)c1ccc(N2C(=S)N(c3cnc(C#N)c(C(F)(F)F)c3)C(=O)C23CCC3)cc1F [Compound 282, 4-(7-(6-Cyano-5-(trifluoromethyl)pyridin-3-yl)-8-oxo-6-thioxo-5,7-diazaspiro[3.4]octan-5-yl)-2-fluoro-N-isopentylbenzamide] | < 1000 nM |
| CC(C)(C)NC(=O)c1ccc(N2C(=S)N(c3cnc(C#N)c(C(F)(F)F)c3)C(=O)C23CCC3)cc1F [Compound 286, N-(tert-Butyl)-4-(7-(6-cyano-5-(trifluoromethyl)pyridin-3-yl)-8-oxo-6-thioxo-5,7-diazaspiro[3.4]octan-5-yl)-2-fluorobenzamide] | < 1000 nM |
| CN1CCN(CCCc2ccc(N3C(=S)N(c4cnc(C#N)c(C(F)(F)F)c4)C(=O)C34CCC4)cc2)CC1 [Compound 124, 5-(5-(4-(3-(4-Methylpiperazin-1-yl)propyl)phenyl)-8-oxo-6-thioxo-5,7-diazaspiro[3.4]octan-7-yl)-3-(trifluoromethyl)picolinonitrile] | < 1000 nM |
| CC1(C)C(=O)N(c2cnc(C#N)c(C(F)(F)F)c2)C(=S)N1c1ccc(O)cc1 [Compound 100, 5-(3-(4-Hydroxyphenyl)-4,4-dimethyl-5-oxo-2-thioxoimidazolidin-1-yl)-3-(trifluoromethyl)picolinonitrile] | < 1000 nM |
| N#Cc1ncc(N2C(=O)C3(CCC3)N(c3ccc(Oc4ccncn4)cc3)C2=S)cc1C(F)(F)F [Compound 208, 5-(8-Oxo-5-(4-(pyrimidin-4-yloxy)phenyl)-6-thioxo-5,7-diazaspiro[3.4]octan-7-yl)-3-(trifluoromethyl)picolinonitrile] | < 1000 nM |
| CNC(=O)c1ccc(N2C(=S)N(c3cnc(C#N)c(C)c3)C(=O)C2(C)C)cc1F [Compound 47, 4-(3-(6-Cyano-5-methylpyridin-3-yl)-5,5-dimethyl-4-oxo-2-thioxoimidazolidin-1-yl)-2-fluoro-N-methylbenzamide] | < 1000 nM |
| CC(C)(O)CNC(=O)c1ccc(N2C(=S)N(c3cnc(C#N)c(C(F)(F)F)c3)C(=O)C23CCC3)cc1F [Compound 285, 4-(7-(6-Cyano-5-(trifluoromethyl)pyridin-3-yl)-8-oxo-6-thioxo-5,7-diazaspiro[3.4]octan-5-yl)-2-fluoro-N-(2-hydroxy-2-methylpropyl)benzamide] | > 1000 nM |
